# Source: patent US9980949B2, “SNS-595 and methods of using the same” (Sunesis Pharmaceuticals, Inc., priority 2004, dated 2018)
# Assays:
# HCT116 cells = assay: Combination studies with SNS-595, MTT assay, median-effect Combination Index; format: cell-based; conditions: combination with SNS-595 at constant ratio, 72 hours, <0.90 synergistic, 0.90-1.10 additive, >1.10 antagonistic
# Description: The final DMSO concentration was 1% in the assay plate. The treated cells were incubated for 72 hours at 37° C., 5% CO2 before adding 20 μl/well 3-[4,5-dimethylthiazol-2-yl]-2,5-diphenyltetrazolium bromide (MTT) for 1 hour followed by 100 μl/well N,N-dimethyl formamide/SDS lysis buffer for at least 16 hours. The plates were read for absorbance at a wavelength of 595 nm. The data was worked up using the median-effect method that quantifies the interaction using a Combination Index (calculated using the software for dose effect analysis, Calcusyn V2(Biosoft). A combination is said to be additive if it yields a Combination Index of 0.90-1.10. A combination is said to be synergistic if it yields a Combination Index less than 0.90 and a combination is said to be antagonistic if it yields a Combination Index of more than 1.10. All Combination Index calculations were at a Fa value of 0.5, the point where 50% of the cells were dead. See Table 2.
# [1] = test system: 2-deoxyglucose treated cells; assay: Activity in cells with topoisomerase II levels modulated by 2-deoxyglucose; format: cell-based; conditions: topoisomerase II levels modulated using 2-deoxyglucose
# Source text: (§1) SNS-595 is a cell cycle inhibitor and arrests cells at the G2 interface. Initially, the activity of SNS-595 was believed due to topoisomerase II inhibition.
# DNA-PK pathway [2] = assay: Dose-dependent responses of DNA-PK pathway members in HCT 116 cells (FIG. 2); format: cell-based; conditions: H2AX, c-Abl, p53, p73, p21, caspase-9, caspase-3
# Source text: (§2) This damage impedes the ability of the cell to synthesize DNA and lengthens the time the cell spends in the S phase. […] When the DNA damage is sufficiently severe such that the double-strand breaks cannot be repaired through non-homologous end joining (NHEJ), the cell rapidly enters apoptosis. Some cells are able to reach the G2 phase but are subsequently arrested (mediated by cdc2/cyclin B) because the cells are too damaged to enter into the M phase and also eventually becomes apoptotic.
# [3] = test system: stable variant of HCT-116 cells; assay: Sensitivity of a stable SNS-595-resistant variant of HCT-116 cells; format: cell-based; conditions: stable variant with induced resistance
# Source text: Consistent with this mechanism, cells with induced resistance to SNS-595 also have alterations in the DNA-PK pathway. […] Conversely, decreased levels of DNA-PK or its activity (e.g. in the presence of an inhibitor) is associated with an increased sensitivity to SNS-595.
# various cells = assay: Cellular potency (EC50) in various cells; format: cell-based
# Source text: as §1
# DNA-PK null cell line = assay: Inhibition of cell growth (MTT) by SNS-595 in DNA-PK null cell line; format: cell-based; conditions: DNA-PK null cell line instead of HCT-116 cells
# Description: (§3) HCT-116 colon cancer cells were plated at a density of approximately […] with 100 μl/well of RPMI-1640 media (supplemented with 10% fetal bovine serum, 1% antibiotic/antimycotic, and 1.5% sodium bicarbonate) in a 96-well clear tissue-culture treated plate for 24 hours at 37° C., 5% CO2. Some cells were treated with 100 nM wortmannin for 8-16 hours. SNS-595 was then added as a serial dilution, and cells were incubated for 72 hours at 37° C., 5% CO2. MTT (20 μl/well of a 5 mg/ml stock solution) was added for 1 hour, followed by N,N-dimethyl formamide/SDS lysis buffer for at least 16 hours. Absorbance was monitored at 595 nm and data were fit by nonlinear regression to determine the inhibition of cell growth (IC50) by SNS-595 in the absence and presence of wortmannin. […] Similar results were seen when DNA-PK null cell line (approximately a 10 fold sensitization) was used instead of HCT-116 cells.
# [4] = Pharmacokinetics of SNS-595 in cancer patients; format: in vivo, human; conditions: for C0: human, intravenous
# Description: SNS-595 was administered to enrolled patients for up to six cycles. A cycle is defined as a three-week period, with SNS-595 administered on the first day of each cycle (day 0), followed by at least 21 days of observation. SNS-595 was administered to cohorts of at least 3 patients and dose escalation occurred by sequential cohort.
# non-proliferating cells = format: cell-based
# Source text: as §2, with “Treatment with SNS-595 results in an increase in the number of double-strand DNA breaks that form during the S phase. This” for “This”
# [5] = Solubility in acidic compositions; format: physicochemical; conditions: acidic compositions (<pH 4)
# Description: An illustrative example of a suitable composition comprises: 10 mg SNS-595 per mL of aqueous solution of 4.5% sorbitol that is adjusted to pH 2.5 with methanesulfonic acid. One protocol for making such a solution includes the following for making a 100 mg/10 mL presentation: 100 mg of SNS-595 and 450 mg D-sorbitol are added to distilled water; the volume is brought up to a volume of 10 mL; and the pH of the resulting solution is adjusted to 2.5 with methanesulfonic acid. The resulting composition is also suitable for lyophilization. The lyophilized form is then reconstituted with sterile water to the appropriate concentration prior to use.
# topoisomerase II = assay: Catalytic inhibition of topoisomerase II (decatenation and relaxation of supercoiled DNA); format: biochemical; conditions: inhibits decatenation and relaxation of supercoiled DNA, no formation of cleavable complexes
# Source text: as §1
# DNA-PK pathway [6] = assay: Pharmacodynamic study: DNA-PK pathway members in HCT116 xenograft tumors (Western blots); format: in vivo, Nu/nu mice; conditions: IV bolus 20 or 40 mg/kg, 1-24 hours post dose, FIG. 3
# Description: Nu/nu mice (ca. 25 grams) were injected with HCT116 cells (which were obtained from the ATCC) in the hind flank at 5 million cells with 50% matrigel (Becton-Dickinson). Tumors were allowed to grow to 400 mm^3. Xenograft bearing animals were then given either an IV bolus injection of SNS-595 (20 or 40 mg/kg) in the tail vein or a saline vehicle. At prescribed time points (1, 2, 4, 8, 16, and 24 hours post dose), animals were anesthetized with CO2, blood was taken via terminal cardiac puncture, and animals were sacrificed. Tumors were excised, pulverized using liquid nitrogen-cooled mortar and pestle, and flash-frozen in liquid nitrogen. Tumor lysates were made from pulverized samples by addition of lysis buffer. The protein concentrations of the DNA-PK pathway members were determined by Western blots. Approximately 25 micrograms of protein was loaded per lane on an SDS-PAGE gel. Proteins were separated by gel electrophoresis, blotted onto nitrocellulose membranes, and detected using the following antibodies: H2AX, phosphorylated at […] (Cell Signaling, catalog no. 2577L); p53, phosphorylated at S15 (Cell Signaling, catalog no. 9284S); p53, phosphorylated at S37 (Cell Signaling, catalog no. 9289S); p21 (Cell Signaling, catalog no. 2946); cdc2, phosphorylated at Y15 (Calbiochem, catalog no. 219437); cyclin B (Santa Cruz, catalog no. sc-594 (H-20)); p73, phosphorylated at […] […]
# [7] = test system: cells where G2 arrest is abrogated; assay: Cytotoxicity in cells where G2 arrest is abrogated by caffeine; format: cell-based; conditions: caffeine inhibits both ATM and ATR
# Source text: As shown by FIG. 1, ATM, ATR, and DNA-PK are three central DNA sensors/effectors that depending on the level of DNA damage that is detected within an individual cell, direct the cell into one of several outcomes including DNA repair, G2 arrest or apoptosis.
# [8] = test system: HCT-116 colon cancer cells; assay: Inhibition of cell growth (MTT) by SNS-595 in absence and presence of wortmannin; format: cell-based; conditions: HCT-116 cells, 100 nM wortmannin for 8-16 hours, 72 hours
# Description: as §3
structure (smiles),measurement,setting,value
COC[C@H]1OC(=O)c2coc3c2[C@@]1(C)C1=C(C3=O)[C@@H]2CCC(=O)[C@@]2(C)C[C@H]1OC(C)=O [Wortmannin],Combination Index @ Fa = 0.5,HCT116 cells,0.42
COC1=C2C[C@@H](C)C[C@H](OC)[C@H](O)[C@@H](C)/C=C(\C)[C@H](OC(N)=O)[C@@H](OC)/C=C\C=C(/C)C(=O)NC(=CC1=O)C2=O [Geldanamycin],Combination Index @ Fa = 0.5,HCT116 cells,0.47
"CN[C@H]1CN(c2ccc3c(=O)c(C(=O)O)cn(-c4nccs4)c3n2)C[C@@H]1OC [SNS-595, (+)-1,4-dihydro-7-[(3S,4S)-3-methoxy-4-(methylamino)-1-pyrrolidinyl]-4-oxo-1-(2-thiazoyl)-1,8-naphthyridine-3-carboxylic acid]",difference in activity between 2-deoxyglucose treated cells and untreated cells,[1],essentially no difference in activity
same,activation of DNA-PK mediated repair and apoptotic cellular machinery,DNA-PK pathway [2],"activates, in a dose dependent manner"
same,sensitivity of resistant HCT-116 variant relative to HCT-116 cells,[3],approximately ten fold less sensitive
same,"difference in potency, cellular EC50 versus biochemical inhibition of topoisomerase II",various cells,at least a ten-fold difference in increased potency
same,sensitization to SNS-595,DNA-PK null cell line,~10 fold
same,relation of dose to AUC∞,[4]; dose escalation by sequential cohort,linear with AUC∞
same,C0,"[4]; 3 mg/m2, plasma, dose 3 mg/m^2",153 ng/mL
same,C0,"[4]; 6 mg/m2, plasma, dose 6 mg/m^2",377 ng/mL
same,C0,"[4]; 12 mg/m2, plasma, dose 12 mg/m^2",2890 ng/mL
same,C0,"[4]; 24 mg/m2, plasma, dose 24 mg/m^2",2920 ng/mL
same,C0,"[4]; 48 mg/m2, plasma, dose 48 mg/m^2",1980 ng/mL
same,C0,"[4]; 60 mg/m2, plasma, dose 60 mg/m^2",4800 ng/mL
same,AUCINF_obs,"[4]; plasma, dose 3 mg/m^2",1139.55 ng·h/mL
same,Cl_obs,"[4]; plasma, dose 3 mg/m^2",1.14 mL/min/kg
same,Cmax,"[4]; plasma, dose 3 mg/m^2",138.80 ng/mL
same,HL,"[4]; plasma, dose 3 mg/m^2",16.27 h
same,MRTINF_obs,"[4]; plasma, dose 3 mg/m^2",21.95 h
same,Vss_obs,"[4]; plasma, dose 3 mg/m^2",1.44 L/kg
same,Vz_obs,"[4]; plasma, dose 3 mg/m^2",1.55 L/kg
same,Cl_obs,"[4]; plasma, dose 6 mg/m^2",0.71 mL/min/kg
same,Cmax,"[4]; plasma, dose 6 mg/m^2",347.00 ng/mL
same,HL,"[4]; plasma, dose 6 mg/m^2",20.69 h
same,Vss_obs,"[4]; plasma, dose 6 mg/m^2",1.24 L/kg
same,Vz_obs,"[4]; plasma, dose 6 mg/m^2",1.28 L/kg
same,AUCINF_obs,"[4]; plasma, dose 12 mg/m^2",6329.15 ng·h/mL
same,Cl_obs,"[4]; plasma, dose 12 mg/m^2",0.76 mL/min/kg
same,Cmax,"[4]; plasma, dose 12 mg/m^2",2246.67 ng/mL
same,HL,"[4]; plasma, dose 12 mg/m^2",17.81 h
same,Vss_obs,"[4]; plasma, dose 12 mg/m^2",1.07 L/kg
same,Vz_obs,"[4]; plasma, dose 12 mg/m^2",1.17 L/kg
same,AUCINF_obs,"[4]; plasma, dose 24 mg/m^2",12655.32 ng·h/mL
same,AUClast,"[4]; plasma, dose 24 mg/m^2",11133.03 ng·h/mL
same,Cl_obs,"[4]; plasma, dose 24 mg/m^2",0.83 mL/min/kg
same,Cmax,"[4]; plasma, dose 24 mg/m^2",2703.33 ng/mL
same,HL,"[4]; plasma, dose 24 mg/m^2",16.14 h
same,Vss_obs,"[4]; plasma, dose 24 mg/m^2",1.06 L/kg
same,Vz_obs,"[4]; plasma, dose 24 mg/m^2",1.15 L/kg
same,AUCINF_obs,"[4]; plasma, dose 48 mg/m^2",27347.38 ng·h/mL
same,Cl_obs,"[4]; plasma, dose 48 mg/m^2",0.99 mL/min/kg
same,Cmax,"[4]; plasma, dose 48 mg/m^2",2868.00 ng/mL
same,HL,"[4]; plasma, dose 48 mg/m^2",21.32 h
same,Vss_obs,"[4]; plasma, dose 48 mg/m^2",1.48 L/kg
same,Vz_obs,"[4]; plasma, dose 48 mg/m^2",1.57 L/kg
same,Cl_obs,"[4]; plasma, dose 60 mg/m^2",0.83 mL/min/kg
same,Cmax,"[4]; plasma, dose 60 mg/m^2",4537.50 ng/mL
same,HL,"[4]; plasma, dose 60 mg/m^2",17.63 h
same,Vss_obs,"[4]; plasma, dose 60 mg/m^2",1.08 L/kg
same,Vz_obs,"[4]; plasma, dose 60 mg/m^2",1.20 L/kg
same,lethality to non-proliferating cells,non-proliferating cells,non-lethal to non-proliferating cells
same,solubility,[5],increased solubility
same,IC50,topoisomerase II,~5 µM
same,levels of DNA-PK pathway members in tumors upon treatment,DNA-PK pathway [6],activated in tumors
same,"difference in EC50 values, caffeine-treated (G2 arrest abrogated) versus untreated cells",[7],essentially no difference in EC50 values
same,IC50 lower in the presence of wortmannin than in its absence,[8],3-6 fold
CC[C@H](CO)Nc1nc(NCc2ccccc2)c2ncn(C(C)C)c2n1 [Roscovitine],Combination Index @ Fa = 0.5,HCT116 cells,1.10
N.N.[Cl][Pt][Cl] [Cisplatin],Combination Index @ Fa = 0.5,HCT116 cells,0.54
Cn1cnc2c(NCc3ccccc3)nc(NCCO)nc21 [Olomucine],Combination Index @ Fa = 0.5,HCT116 cells,1.00
N.N.O=C([O-])C1(C(=O)[O-])CCC1.[Pt+2] [Carboplatin],Combination Index @ Fa = 0.5,HCT116 cells,0.54
CC(=O)O[C@@]12CO[C@@H]1C[C@H](O)[C@@]1(C)C(=O)[C@H](O)C3=C(C)[C@@H](OC(=O)[C@H](O)[C@@H](NC(=O)OC(C)(C)C)c4ccccc4)C[C@@](O)([C@@H](OC(=O)c4ccccc4)[C@H]21)C3(C)C [Docetaxel],Combination Index @ Fa = 0.5,HCT116 cells,2.00
